Test results taken from patent US8518934B2, “Oxycarbamoyl compounds and the use thereof” (Shonogi & Co., Ltd., priority 2008, dated 2013).

Target: T1, N-type calcium channel (NTCC) (Homo sapiens, UniProt Q00975)
T1 construct: endogenous in cells; host or cells: differentiated IMR32 cells (ATCC)
Assay: FLIPR calcium mobilization assay for N-type calcium channel
Type: cell-based
Conditions: calcium mobilization in vitro assay; differentiated IMR32 cells, 90 mM KCl, 5 μM nitrendipine, Fluo-4
Method: Cell maintenance and differentiation. Unless noted otherwise, cell culture reagents were purchased from Mediatech of Herndon, Md. IMR32 cells (American Type Culture Collection, ATCC, Manassas, Va.) were routinely cultured in growth medium consisting of minimum essential medium containing 10% fetal bovine serum (FBS, Hyclone, Logan, Utah), 100 U/mL penicillin, 100 μg/mL streptomycin, 2 mM L-glutamine, 1 mM sodium pyruvate, and 1×MEM non-essential amino acids. 80-90% confluent flasks of cells were differentiated using the following differentiation medium: Growth medium plus 1 mM dibutyryl cyclic AMP (Sigma, St. Louis, Mo.), and 2.5 μM bromodeoxyuridine (Sigma). Cells were differentiated for 8 days by replacing differentiation medium every 2-3 days. A7r5 (ATCC) cells were maintained and routinely cultured in A7r5 growth medium consisting of Dulbecco's Modified Eagles Medium containing 10% FBS, 100 U/mL penicillin, 100 μg/mL streptomycin, 4 mM L-glutamine, and 0.15% sodium bicarbonate. 80-90% confluent flasks of cells were differentiated using the following differentiation medium: A7r5 Growth Medium plus 1 mM dibutyryl cyclic AMP (Sigma). Cells were differentiated for 8 days by replacing differentiation medium every 2-3 days.
Recombinant human embryonal kidney cells (HEK293, ATCC) stably transfected with either N-type calcium channel (NTCC) subunits (α1b, α2δ, and β3) or L-type calcium channel (LTCC) subunits (α1c, α2δ, and β1) were routinely cultured in growth medium consisting of Dulbecco's Modified Eagles Medium containing 10% FBS, 100 U/mL penicillin, 100 μg/mL streptomycin, 4 mM L-glutamine, 500 μg/mL geneticin (G418), 20 μg/mL Blasticidin S (InVivogen, San Diego, Calif.) and 500 μg/mL zeocin (InVivogen). FLIPR Calcium Mobilization Assay for N-type Calcium Channel. One day prior to performing this assay, differentiated IMR32 cells were treated with lx CellStripper, and seeded on poly-D-lysine-coated 96-well clear-bottom black plates (Becton Dickinson, Franklin Lakes, N.J.) at 200,000 cells/well. On the day of the assay, the cell plates were washed with IMR32 buffer (127 mM NaCl, 1 mM KCl, 2 mM MgCl2, 700 μM NaH2PO4, 5 mM CaCl2, 5 mM NaHCO3, 8 mM HEPES, 10 mM glucose, pH 7.4), then pre-stimulated with KCl and loaded as follows: 0.05 mL of IMR32 buffer, 0.05 mL of each compound tested diluted in IMR32 buffer containing 20 μM nitrendipine (Sigma), and 0.1 mL KCl dissolved in IMR32 buffer, plus Fluo-4 were added (3 μM final concentration, Molecular Probes, Eugene, Oreg.). Final test compound concentrations ranged from about 846 pM to about 17 μM, final nitrendipine concentration was 5 μM, and final KCl concentration was 90 mM. After 1 hour, the cells were washed twice with 0.05 mL of each compound tested in nitrendipine-containing IMR32 buffer (no KCl or Fluo-4), and then replaced with 0.1 mL of each compound tested in nitrendipine-containing IMR32 buffer. Plates were then transferred to a Fluorimetric Imaging Plate Reader (FLIPR^96, Molecular Devices, Inc., Sunnyvale, Calif.) for assay. The FLIPR measured basal Fluo-4 fluorescence for 315 seconds (i.e., 5 minutes and 15 seconds), then added 0.1 mL KCl agonist dissolved in IMR32 buffer and measured fluorescence for another 45 seconds. Final test compound concentrations on the cells after FLIPR read ranged from about 846 pM to about 17 μM, final nitrendipine concentration was 5 μM, and final KCl concentration was 90 mM. Data were collected over the entire time course and analyzed using Excel, Graph Pad Prism (version 3.02, Graph Pad, San Diego, Calif.), or an in-house non-linear regression analysis software.

T1 sequence (Q00975 whole entry): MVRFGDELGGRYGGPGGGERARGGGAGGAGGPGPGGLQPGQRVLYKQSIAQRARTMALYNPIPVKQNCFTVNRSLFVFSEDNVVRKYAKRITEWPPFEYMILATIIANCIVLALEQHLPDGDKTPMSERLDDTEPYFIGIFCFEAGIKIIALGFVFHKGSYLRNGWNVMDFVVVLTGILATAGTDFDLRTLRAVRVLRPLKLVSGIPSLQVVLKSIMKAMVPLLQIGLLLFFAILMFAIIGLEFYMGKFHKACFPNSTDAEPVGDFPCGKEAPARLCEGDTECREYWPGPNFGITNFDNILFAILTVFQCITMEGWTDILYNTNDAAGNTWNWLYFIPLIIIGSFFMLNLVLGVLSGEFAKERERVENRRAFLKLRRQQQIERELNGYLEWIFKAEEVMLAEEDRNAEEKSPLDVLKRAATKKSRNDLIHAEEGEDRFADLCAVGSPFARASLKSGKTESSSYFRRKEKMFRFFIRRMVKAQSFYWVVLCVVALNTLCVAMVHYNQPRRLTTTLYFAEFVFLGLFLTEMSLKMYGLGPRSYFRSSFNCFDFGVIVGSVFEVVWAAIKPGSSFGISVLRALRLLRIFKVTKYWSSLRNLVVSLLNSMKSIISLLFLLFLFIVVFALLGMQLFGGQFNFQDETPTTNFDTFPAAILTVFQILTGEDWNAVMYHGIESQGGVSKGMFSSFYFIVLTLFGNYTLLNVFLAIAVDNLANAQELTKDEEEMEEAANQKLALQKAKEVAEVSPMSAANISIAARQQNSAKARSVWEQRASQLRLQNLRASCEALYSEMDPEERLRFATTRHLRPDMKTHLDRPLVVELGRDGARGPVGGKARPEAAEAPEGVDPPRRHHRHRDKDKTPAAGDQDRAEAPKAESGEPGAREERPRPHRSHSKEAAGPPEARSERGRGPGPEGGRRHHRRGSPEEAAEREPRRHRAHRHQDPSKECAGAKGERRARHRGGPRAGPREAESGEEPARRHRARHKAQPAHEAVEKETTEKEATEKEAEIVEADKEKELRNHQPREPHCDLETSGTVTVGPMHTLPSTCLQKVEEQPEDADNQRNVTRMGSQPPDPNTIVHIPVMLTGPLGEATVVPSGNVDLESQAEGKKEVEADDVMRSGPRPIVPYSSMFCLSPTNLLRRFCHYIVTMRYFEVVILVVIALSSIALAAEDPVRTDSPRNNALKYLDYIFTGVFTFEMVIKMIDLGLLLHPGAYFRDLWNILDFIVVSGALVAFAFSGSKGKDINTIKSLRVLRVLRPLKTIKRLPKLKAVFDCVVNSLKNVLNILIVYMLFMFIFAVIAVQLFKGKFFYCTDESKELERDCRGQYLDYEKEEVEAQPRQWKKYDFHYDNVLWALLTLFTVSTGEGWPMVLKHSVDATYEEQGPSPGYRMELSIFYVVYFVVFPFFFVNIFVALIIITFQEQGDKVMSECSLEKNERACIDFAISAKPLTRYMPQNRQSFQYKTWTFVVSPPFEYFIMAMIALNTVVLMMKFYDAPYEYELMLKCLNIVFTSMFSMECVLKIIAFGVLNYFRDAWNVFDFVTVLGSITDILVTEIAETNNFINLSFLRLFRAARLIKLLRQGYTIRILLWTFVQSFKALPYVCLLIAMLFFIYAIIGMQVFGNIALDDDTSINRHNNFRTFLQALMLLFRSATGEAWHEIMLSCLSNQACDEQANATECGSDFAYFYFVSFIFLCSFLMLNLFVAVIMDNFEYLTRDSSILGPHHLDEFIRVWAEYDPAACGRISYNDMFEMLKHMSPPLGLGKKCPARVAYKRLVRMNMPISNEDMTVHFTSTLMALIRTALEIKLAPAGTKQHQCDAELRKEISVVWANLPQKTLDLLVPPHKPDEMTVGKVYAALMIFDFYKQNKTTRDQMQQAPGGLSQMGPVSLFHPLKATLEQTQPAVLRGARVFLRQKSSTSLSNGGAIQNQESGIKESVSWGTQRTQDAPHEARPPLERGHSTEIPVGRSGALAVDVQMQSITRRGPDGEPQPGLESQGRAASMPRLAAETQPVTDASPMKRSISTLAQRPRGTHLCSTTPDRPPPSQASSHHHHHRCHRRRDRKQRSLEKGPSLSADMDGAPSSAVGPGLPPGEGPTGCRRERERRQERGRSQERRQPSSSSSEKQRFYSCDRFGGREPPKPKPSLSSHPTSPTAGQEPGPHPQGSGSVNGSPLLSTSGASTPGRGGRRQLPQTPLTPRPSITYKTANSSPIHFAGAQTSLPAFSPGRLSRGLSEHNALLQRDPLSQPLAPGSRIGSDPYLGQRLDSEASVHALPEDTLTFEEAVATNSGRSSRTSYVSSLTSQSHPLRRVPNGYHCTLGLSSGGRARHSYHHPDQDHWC
T1 sequence (P54289 25-956 partner limits assumed): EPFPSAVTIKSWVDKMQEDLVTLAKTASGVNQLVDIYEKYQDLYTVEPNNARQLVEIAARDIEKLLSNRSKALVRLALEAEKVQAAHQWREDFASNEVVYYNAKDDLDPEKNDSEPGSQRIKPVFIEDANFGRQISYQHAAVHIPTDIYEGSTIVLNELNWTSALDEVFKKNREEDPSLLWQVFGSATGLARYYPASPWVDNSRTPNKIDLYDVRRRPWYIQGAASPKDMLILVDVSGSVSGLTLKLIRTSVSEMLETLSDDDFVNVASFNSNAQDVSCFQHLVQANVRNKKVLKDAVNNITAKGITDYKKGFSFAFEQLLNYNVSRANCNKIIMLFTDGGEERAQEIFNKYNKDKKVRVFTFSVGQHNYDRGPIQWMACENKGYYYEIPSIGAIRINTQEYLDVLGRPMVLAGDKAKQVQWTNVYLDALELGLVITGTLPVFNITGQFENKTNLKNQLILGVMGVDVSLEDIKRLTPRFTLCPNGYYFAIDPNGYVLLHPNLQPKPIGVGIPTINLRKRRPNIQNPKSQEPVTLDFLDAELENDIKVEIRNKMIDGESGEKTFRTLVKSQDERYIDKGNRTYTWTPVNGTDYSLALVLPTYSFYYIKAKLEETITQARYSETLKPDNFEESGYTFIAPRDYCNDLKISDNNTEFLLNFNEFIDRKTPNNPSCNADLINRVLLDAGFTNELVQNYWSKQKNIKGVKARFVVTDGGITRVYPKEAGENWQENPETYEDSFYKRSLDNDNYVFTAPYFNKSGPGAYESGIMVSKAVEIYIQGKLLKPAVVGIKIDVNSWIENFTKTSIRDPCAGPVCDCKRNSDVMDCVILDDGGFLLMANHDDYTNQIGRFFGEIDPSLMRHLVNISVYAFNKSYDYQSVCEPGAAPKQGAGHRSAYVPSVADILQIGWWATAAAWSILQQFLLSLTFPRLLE
T1 sequence (P54289 957-1103 partner limits assumed): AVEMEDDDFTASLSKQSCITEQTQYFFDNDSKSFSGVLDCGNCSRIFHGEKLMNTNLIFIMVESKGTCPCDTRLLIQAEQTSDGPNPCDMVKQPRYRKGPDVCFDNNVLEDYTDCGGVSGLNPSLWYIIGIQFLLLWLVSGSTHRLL
T1 sequence (P54284 whole entry partner): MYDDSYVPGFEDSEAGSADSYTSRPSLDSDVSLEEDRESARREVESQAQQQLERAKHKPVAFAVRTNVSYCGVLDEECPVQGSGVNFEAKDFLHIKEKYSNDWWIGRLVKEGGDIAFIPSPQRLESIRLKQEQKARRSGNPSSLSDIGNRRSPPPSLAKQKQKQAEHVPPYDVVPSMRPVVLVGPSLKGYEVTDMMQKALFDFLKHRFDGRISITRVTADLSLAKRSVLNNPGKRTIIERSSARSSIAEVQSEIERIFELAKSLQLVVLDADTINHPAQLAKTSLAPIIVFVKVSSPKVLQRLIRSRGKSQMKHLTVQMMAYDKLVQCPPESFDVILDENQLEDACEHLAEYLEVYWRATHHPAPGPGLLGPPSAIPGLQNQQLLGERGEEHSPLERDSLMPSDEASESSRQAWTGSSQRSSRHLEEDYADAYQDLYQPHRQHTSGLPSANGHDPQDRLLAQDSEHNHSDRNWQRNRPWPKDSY

Structure (SMILES) | IC50 [nM]
N#Cc1cccc(C(=O)NOC2CCN(S(=O)(=O)c3cccc(C(F)(F)F)c3)CC2)c1 [Example 7, 3-Cyano-N-(1-(3-(trifluoromethyl)phenylsulfonyl)piperidin-4-yloxy)benzamide] | 575
O=C(NO[C@H]1CCN(S(=O)(=O)c2cccc(C(F)(F)F)c2)C1)c1ccc(F)cc1 [Example 16, (S)-4-Fluoro-N-(1-(3-(trifluoromethyl)phenylsulfonyl)pyrrolidin-3-yloxy)benzamide] | 1220
CN(C(=O)NOC1CCN(S(=O)(=O)c2cccc(C(F)(F)F)c2)CC1)c1ccc(F)cc1 [Example 32, 1-(4-Fluorophenyl)-1-methyl-3-(1-(3-(trifluoromethyl)phenylsulfonyl)piperidin-4-yloxy)urea] | 560
O=C(NCCC(F)(F)F)NOC1CCN(S(=O)(=O)c2ccc(OC(F)(F)F)cc2)CC1 [Example 67, 1-(1-(4-(Trifluoromethoxy)phenylsulfonyl)piperidin-4-yloxy)-3-(3,3,3-trifluoropropyl)urea] | 1490
O=C(NO[C@H]1CCN(S(=O)(=O)c2cccc(C(F)(F)F)c2)C1)Nc1cc(C(F)(F)F)cc(C(F)(F)F)c1 [Example 86, (S)-1-(3,5-Bis(trifluoromethyl)phenyl)-3-(1-(3-(trifluoromethyl)phenylsulfonyl)pyrrolidin-3-yloxy)urea] | 705
O=C(NOC1CCN(C(c2ccc(F)cc2)c2ccc(F)cc2)CC1)Nc1ccc(F)cc1 [Example 106, 1-(1-(Bis(4-fluorophenyl)methyl)piperidin-4-yloxy)-3-(4-fluorophenyl)urea] | 2580

These reach a lower IC50. Values come first.

IC50 [nM] | Structure (SMILES)
290 | O=C(NOC1CCN(S(=O)(=O)c2ccc(OC(F)(F)F)cc2)CC1)NC1CCC1 [Example 55, 1-Cyclobutyl-3-(1-(4-(trifluoromethoxy)phenylsulfonyl)piperidin-4-yloxy)urea]
218 | O=C(NOC1CCN(S(=O)(=O)c2cccc(C(F)(F)F)c2)CC1)C(c1ccccc1)c1ccccc1 [Example 9, 2,2-Diphenyl-N-(1-(3-(trifluoromethyl)phenylsulfonyl)piperidin-4-yloxy)acetamide]
154 | O=C(NCCOc1ccc(F)cc1)NOC1CCN(S(=O)(=O)c2cccc(C(F)(F)F)c2)CC1 [Example 31, 1-(2-(4-Fluorophenoxy)ethyl)-3-(1-(3-(trifluoromethyl)phenylsulfonyl)piperidin-4-yloxy)urea]
102 | O=C(CCc1ccc(F)cc1)NOC1CCN(S(=O)(=O)c2cccc(C(F)(F)F)c2)CC1 [Example 5, 3-(4-Fluorophenyl)-N-(1-(3-(trifluoromethyl)phenylsulfonyl)piperidin-4-yloxy)propanamide]
